From the NIST ThermoML archive (doi:10.1016/j.fluid.2010.02.012)

Experiment: excess molar enthalpy (molar enthalpy of mixing); xn = mol fraction of the nth substance listed
Conditions: 298.18 K, 101 kPa, Liquid, Calvet calorimetry

CCCCCCCCCC [decane] + CCO
Conditions | excess molar enthalpy [kcal/mol]
x2 = 0.0881 | 0.12
x2 = 0.1338 | 0.142
x2 = 0.1766 | 0.159
x2 = 0.2665 | 0.174
x2 = 0.3141 | 0.176
x2 = 0.4314 | 0.176
x2 = 0.5931 | 0.161
x2 = 0.6501 | 0.153
x2 = 0.7248 | 0.141
x2 = 0.7837 | 0.128
x2 = 0.8079 | 0.123
x2 = 0.848 | 0.105
x2 = 0.8829 | 0.0894
x2 = 0.9377 | 0.0576
x2 = 0.962 | 0.038
